Among the data in US20230381159A1 (priority 2020, published 2023) are IC50 values, retold here.

The experiment has as its system SARS-CoV-2 pseudovirus (VSV-ΔG) entry into ACE2/Furin expressing host cells (Vero-E6). In words: microbe, parasite or virus in culture. It counts as cell-based, SARS-CoV-2 pseudovirus / African Green Monkey cells. Conditions: Severe acute respiratory syndrome-related coronavirus, Vero C1008, 20 h, read-out: IC50, inhibition of pseudovirus entry (VSV-ΔG).

On to `O=C(Nc1ccc(-c2ccc(C(=O)Nc3cccc4cc(S(=O)(=O)O)ccc34)cc2)cc1)c1ccc([N+](=O)[O-])cc1` [Compound A2, 5-(4′-(4-Nitrobenzamido)biphenyl-4-ylcarboxamido)naphthalene-2-sulfonic acid], for which the IC50 (usually the concentration at which inhibition is half-maximal) is 7 µM.

Regarding `Nc1c(/N=N/c2ccc(-c3ccc(/N=N/c4cc(S(=O)(=O)O)c5ccccc5c4N)cc3)cc2)cc(S(=O)(=O)O)c2ccccc12` [Congo red], the IC50 turned out to be 16 µM.
